Among the data in ChEMBL document CHEMBL5257089, “Gamabufotalin Induces Apoptosis and Cytoprotective Autophagy through the mTOR Signaling Pathway in Hepatocellular Carcinoma” (J Nat Prod, 2023) are Activity and viability values, retold here.

Active and inactive are the calls of the source. The calls are words filed in the database; no cut-off is given here.

Data set [1] concerns Huh-7. As to the kind of experiment: Induction of autophagic flux in human Huh-7 cells harbouring mCherry-egfp-LC3 assessed as reduction in number of yellow puncta ratio at 10 nM incubated for 15 mins in presence of gamabufotalin by laser scanning confocal microscopic analysis. The data set is classed as functional, cell-based.
In data set [2] the test system is Hep 3B2. The experiment in a line: Induction of apoptosis in human Hep3B cells assessed as necrotic cells at 10 nM incubated for 48 hrs in presence of gamabufotalin by Annexin V-FITC/PI staining based flow cytometry method (reference value: 1.2%). The data set is classed as functional.
Data set [3] concerns Huh-7. The experiment in a line: Induction of apoptosis in human Huh-7 cells assessed as increase in PARP level at 10 nM incubated for 48 hrs in presence of gamabufotalin by immunoblot analysis. It is filed as functional, cell-based.
For data set [4], the system named is Huh-7. As to the kind of experiment: Induction of apoptosis in human Huh-7 cells assessed as necrotic cells at 10 nM incubated for 48 hrs in presence of gamabufotalin by Annexin V-FITC/PI staining based flow cytometry method (reference value: 1.0%). It is filed as functional. (A flow cytometer gives signals particle by particle.)
Data set [5] deals with Huh-7. As to the kind of experiment: Induction of autophagic flux in human Huh-7 cells assessed as rescue of p62 at 10 uM incubated for 48 hrs in presence of gamabufotalin by Western blot analysis. It is filed as functional, cell-based. A general note: A western blot detects proteins with antibodies after separation by electrophoresis.
In data set [6] the test system is Hep 3B2. As to the kind of experiment: Induction of autophagy in human Hep3B cells assessed as rescue of mTOR phosphorylation level at upto 10 nM incubated for 48 hrs in presence of gamabufotalin by immunoblot method. The data set is classed as functional, cell-based.
The test system of data set [7] is Huh-7. The experiment in a line: Induction of apoptosis in human Huh-7 cells assessed as early apoptotic cells at 10 nM incubated for 48 hrs in presence of gamabufotalin by Annexin V-FITC/PI staining based flow cytometry method (reference value: 2.8%). The data set is classed as functional.
Data set [8] relates to Huh-7. As to the kind of experiment: Induction of apoptosis in human Huh-7 cells assessed as fragmented nuclei at upto […] incubated for 48 hrs by Hoechst33258 staining based fluorescence microscopy. It is filed as functional, cell-based.
The test system of data set [9] is Huh-7. As to the kind of experiment: Induction of apoptosis in human Huh-7 cells assessed as early apoptotic cells at 25 nM incubated for 48 hrs by Annexin V-FITC/PI staining based flow cytometry method (reference value: 4.3%). The data set is classed as functional.
Data set [10] relates to Hep 3B2. As to the kind of experiment: Induction of autophagy in human Hep3B cells harbouring mCherry-egfp-LC3 assessed as reduction in yellow puncta ratio at 25 nM incubated for 15 mins in presence of 4,6-dimorpholino-N-(4-nitrophenyl)-1,3,5-triazin-2-amine by laser scanning confocal microscopic analysis. It is filed as functional, cell-based.
Data set [11] has as its system Huh-7. The experiment in a line: Induction of apoptosis in human Huh-7 cells assessed as viable cells at 25 nM incubated for 48 hrs by Annexin V-FITC/PI staining based flow cytometry method (reference value: 90.0%). The data set is classed as functional. As to conditions: read-out: Activity.
Data set [12] concerns Hep 3B2. The experiment in a line: Induction of apoptosis in human Hep3B cells assessed as increase in caspase-3 expression at upto 25 nM incubated for 48 hrs by Western blot analysis. It is filed as functional, cell-based.
For data set [13], the system named is Hep 3B2. The experiment in a line: Induction of autophagic flux in human Hep3B cells harbouring mCherry-egfp-LC3 assessed as increase in red puncta at 25 nM incubated for 15 mins by laser scanning confocal microscopic analysis. It is filed as functional, cell-based.
Data set [14] in a line: Toxicity in mouse assessed as effect on serum BUN level at 5 mg/kg,ip administered every second day for 3 weeks by H and E staining based microscopic method. It is filed as organism-based. As to conditions: in vivo, 504 h.
Data set [15] deals with Huh-7. As to the kind of experiment: Induction of autophagy in human Huh-7 cells assessed as rescue of ULK1 phosphorylation level at upto 25 nM incubated for 48 hrs in presence of chloroquine by immunoblot method. It is filed as functional, cell-based.
The test system of data set [16] is Hep 3B2. As to the kind of experiment: Antitumor activity against human Hep3B cells xenografted in nude mouse model assessed as reduction in Ki-67 index at 5 mg/kg,ip administered every second day for 3 weeks by immunohistochemical analysis. It is filed as functional, organism-based. (In general: Xenograft models place foreign cells or tissue in a host animal.)

The subject of data set [17] is Huh-7. The experiment in a line: Induction of apoptosis in human Huh-7 cells assessed as late apoptotic cells at 25 nM incubated for 48 hrs in presence of chloroquine by Annexin V-FITC/PI staining based flow cytometry method (reference value: 4.7%). The data set is classed as functional.
Data set [18] has as its system Hep 3B2. As to the kind of experiment: Induction of autophagy in human Hep3B cells assessed as upregulation of p62 at 25 uM incubated for 48 hrs in presence of 4,6-dimorpholino-N-(4-nitrophenyl)-1,3,5-triazin-2-amine by immunoblot analysis. It is filed as functional, cell-based.
The test system of data set [19] is Huh-7. The experiment in a line: Induction of apoptosis in human Huh-7 cells assessed as reduction in Bcl-2 level at 25 nM incubated for 48 hrs in presence of chloroquine by immunoblot analysis. The data set is classed as functional, cell-based.
Data set [20] concerns Hep 3B2. The experiment in a line: Induction of autophagy in human Hep3B cells assessed as reduction in mTOR phosphorylation level incubated for 48 hrs by immunoblot method. The data set is classed as functional, cell-based. As to conditions: dose 0-25 nM.
Data set [21] deals with Hep 3B2. As to the kind of experiment: Induction of apoptosis in human Hep3B cells assessed as viable cells at 25 nM measured after 48 hrs by annexin V-FITC/Propidium iodide staining based flow cytometric analysis (reference value: 95.6%). It is filed as functional. As to conditions: read-out: Activity.
For data set [22], the system named is Hep 3B2. The experiment in a line: Induction of apoptosis in human Hep3B cells assessed as early apoptotic cells at 25 nM incubated for 48 hrs by Annexin V-FITC/PI staining based flow cytometry method (reference value: 3.9%). It is filed as functional.
Data set [23] deals with Hep 3B2. The experiment in a line: Induction of apoptosis in human Hep3B cells assessed as late apoptotic cells at 25 nM incubated for 48 hrs by Annexin V-FITC/PI staining based flow cytometry method (reference value: 3.5%). The data set is classed as functional.
For data set [24], the system named is Huh-7. The experiment in a line: Induction of apoptosis in human Huh-7 cells assessed as viable cells at 25 nM incubated for 48 hrs in presence of chloroquine by Annexin V-FITC/PI staining based flow cytometry method (reference value: 91.5%). It is filed as functional. Particulars: read-out: Activity.
In data set [25] the test system is Hep 3B2. The experiment in a line: Induction of apoptosis in human Hep3B cells assessed as necrotic cells at 20 nM incubated for 48 hrs by Annexin V-FITC/PI staining based flow cytometry method (reference value: 0.2%). It is filed as functional.
Data set [26] has as its system Hep 3B2. As to the kind of experiment: Induction of apoptosis in human Hep3B cells assessed as […] expression at upto 25 nM incubated for 48 hrs by Western blot analysis. The data set is classed as functional, cell-based.
Data set [27] relates to Hep 3B2. The experiment in a line: Induction of apoptosis in human Hep3B cells assessed as necrotic cells at 25 nM measured after 48 hrs by annexin V-FITC/Propidium iodide staining based flow cytometric analysis (reference value: 0.3%). It is filed as functional.
Data set [28] deals with Huh-7. The experiment in a line: Induction of autophagy in human Huh-7 cells assessed as reduction in mTOR phosphorylation level incubated for 48 hrs by immunoblot method. The data set is classed as functional, cell-based. Particulars: dose 0-25 nM.
In data set [29] the test system is Huh-7. The experiment in a line: Induction of autophagy in human Huh-7 cells assessed as reduction in autophagic vesicles at 25 nM incubated for 48 hrs in presence of 4,6-dimorpholino-N-(4-nitrophenyl)-1,3,5-triazin-2-amine by transmission electron microscopy based analysis. The data set is classed as functional, cell-based.
The subject of data set [30] is Hep 3B2. As to the kind of experiment: Induction of autophagic flux in human Hep3B cells assessed as increase in intracellular vesicles at 25 nM incubated for 48 hrs by transmission electron microscopic analysis. It is filed as functional, cell-based.
In data set [31] the test system is Hep 3B2. As to the kind of experiment: Induction of apoptosis in human Hep3B cells assessed as increase in cleaved bax level at 25 nM incubated for 48 hrs in presence of chloroquine by immunoblot analysis. The data set is classed as functional, cell-based.
The subject of data set [32] is Huh-7. As to the kind of experiment: Induction of autophagic flux in human Huh-7 cells harbouring mCherry-egfp-LC3 assessed as reduction in number of red puncta ratio at 25 nM incubated for 15 mins in presence of chloroquine by laser scanning confocal microscopic analysis. It is filed as functional, cell-based.
In data set [33] the test system is Hep 3B2. The experiment in a line: Induction of apoptosis in human Hep3B cells assessed as early apoptotic cells at 25 nM measured after 48 hrs by Annexin V-FITC/PI staining based flow cytometry method (reference value: 1.3%). It is filed as functional.

For `CCN(CC)CCCC(C)Nc1ccnc2cc(Cl)ccc12` (stereo not drawn) [CHLOROQUINE], the result in the data set on Huh-7 [1], in the data set on Huh-7 [3], in the data set on Huh-7 [5] and in the data set with Hep 3B2 [6] was Active. Also, the Activity is listed as 0.8% in the data set on Hep 3B2 [2], 3.4% in the data set on Huh-7 [4] and 12.1% in the data set on Huh-7 [7].

As to `C[C@]12CC[C@H](O)C[C@H]1CC[C@@H]1[C@@H]2[C@H](O)C[C@]2(C)[C@@H](c3ccc(=O)oc3)CC[C@]12O` [GAMABUFOTALIN], the outcome with Huh-7 [8], in the data set with Hep 3B2 [10], in the data set on Hep 3B2 [12], in the data set on Hep 3B2 [13], with Huh-7 [15] and with Hep 3B2 [16] was Active. The result in the data set on Hep 3B2 [18], in the data set with Huh-7 [19], with Hep 3B2 [26], in the data set on Huh-7 [29], in the data set on Hep 3B2 [30] and in the data set on Hep 3B2 [31] was Active. In the data set with Huh-7 [32], the outcome was Active. Besides, the Activity in the data set with Huh-7 [9] was 8.7%; in data set [14] it was “Non-Toxic”; in the data set on Huh-7 [17], 19.1%; with Hep 3B2 [20], “Dose-Dependent Effect”; in the data set on Hep 3B2 [22], 9.3%; in the data set with Hep 3B2 [23], 13.7%. Further, the Activity is 0.3% in the data set with Hep 3B2 [25], 0.6% in the data set with Hep 3B2 [27], “Dose-Dependent Effect” in the data set on Huh-7 [28] and 11.4% in the data set on Hep 3B2 [33]. Besides, the viability at 0.025 µM with Huh-7 [11] came to 81.5%; with Hep 3B2 [21], 79.6%; in the data set on Huh-7 [24] it was 65.4%.
